This is an account of results in US20150306178A1, “METHODS AND COMPOSITIONS FOR TREATING AND PREVENTING TINNITUS” (Auris Medical AG, priority 2014, published 2015).

“And” between values parts separate entries of the source, which are not always exact repeats. Identical values can stand only once. Where no end group is shown, it is not given here. [ ]: non-standard residue; d: D form.

One assay concerns ASNHL-related tinnitus. The assay can be described thus: Double-blind, randomized, placebo-controlled phase II study of AM-111 in ASNHL and associated tinnitus. The class given is in vivo, human. To be noted: for Number of Subjects with Tinnitus/Number of Subjects with Observation (%): Safety Population; for Complete ASNHL-Related Tinnitus Remission in the Treated Ear, Frequency (%): time point Overall, mITT. Here is the method:
A double-blind, randomized, placebo-controlled phase II study was conducted to evaluate the efficacy and safety of AM-111 in treating ASNHL and associated tinnitus. Eligible participants were aged 18 to 60 years and suffered from ASNHL (unilateral idiopathic sudden sensorineural hearing loss (ISSNHL), uni- or bilateral acute acoustic trauma (AAT)) with hearing loss of at least 30 dB and onset not more than 48 hours previously. The hearing loss was determined against a reference value: mean hearing threshold at the 3 most affected contiguous test frequencies (pure tone average, PTA) less corresponding mean hearing threshold of the contralateral ear (Plontke et al., 2007). In case of previously asymmetric hearing or bilateral ASNHL, thresholds from a previous audiogram or ISO-7029; 2000 norm values served as reference. The PTA frequencies determined at baseline remained fixed for all evaluations.
Exclusion criteria included history of Meniere's disease, autoimmune or radiation induced hearing […] loss, endolymphatic hydrops or fluctuating hearing loss, suspected perilymph fistula, membrane rupture or retrocochlear lesion, barotrauma, air-bone gap >20 dB in 3 contiguous frequencies, previous ASNHL incident within the past 6 weeks, and acute or chronic otitis media or otitis externa. Women who were breast feeding, pregnant or who planned a pregnancy during the study, or women of childbearing potential who declared being unwilling or unable to practice an effective method of […] contraception were excluded. Written informed consent was obtained from each patient prior to the performance of any study-specific procedures.
At baseline (Day 0), study participants were randomized to receive AM-111 (0.4 or 2.0 mg/mL) or placebo at a 2:1 ratio. The study consisted of a baseline assessment and 4 follow-up visits on Days 3, 7, 30, and 90. Baseline assessments included a general physical examination, vital signs, and a urine pregnancy test for women of childbearing age. At each study visit pure tone hearing thresholds, speech discrimination at 60 and 80 dB, and subjective tinnitus loudness were determined. Those patients reporting tinnitus were asked to rate its loudness “right now” on a numerical scale ranging from 0 (no tinnitus) to 10 (extremely loud).
Approximately 0.25 mL of the study drug was administered on Day 0 by intratympanic (i.t.) injection under local anesthesia through a small myringotomy with the patient's head placed in a position tilted 45° towards the unaffected ear. Patients remained in their reclined or supine position for approximately 30 minutes to allow for diffusion of the active substance into the cochlea. In case of bilateral AAT, only the worst affected ear was treated. Subjects whose PTA recovered <10 dB from baseline to Day 7 were given the option to receive oral prednisolone 50 mg (Ratiopharm, Ulm, Germany) b.i.d. for 5 days.
The sample size was determined based on an expected effect size of 0.6, a two-sided type I error rate of 5% and a statistical power of 80%.
Efficacy analyses were primarily performed on a modified “Intention to treat” (mITT) analysis set (treated patients with PTA measured on Day 3±1 or Day 7+4 days at most) and secondarily on the “Per Protocol” (PP) analysis set. The “Safety Population” analysis set included all patients who received an injection of the study medication. Random imputation was performed for missing PTA values at Days 7 and 30, and missing speech discrimination score (SDS) values at Day 7 based on the preceding value and the mean change observed in the respective treatment group (mITT set).
For continuous efficacy endpoints, analysis of covariance (ANCOVA) models were used including treatment group and initial frequency range as class effects, and baseline values of the respective endpoint as covariate. For the complete recovery rate, a logistic regression model was applied including treatment, initial frequency range, and baseline hearing loss as predictor variables. […]

The test system of assay [1] is models of cochlear insult. To be noted: acute noise trauma, acute labyrinthitis, aminoglycoside ototoxicity, bacterial infection, cochlear ischemia, cochlear implantation trauma; cited from earlier work.
For the next assay, the system named is c-Jun/JNK complex. Particulars: in vitro and in intact cells; Holzberg et al. 2003; cited from earlier work.

Take “AM-111: 31-amino acid cell-permeable peptide (SEQ ID NO: 2, all-D), islet-brain 1 effector domain fused to TAT, formulated in a biocompatible hyaluronic acid gel ([dD][dQ][dS][dR][dP][dV][dQ][dP][dF][dL][dN][dL][dT][dT][dP][dR][dK][dP][dR][dP][dP][dR][dR][dR][dQ][dR][dR][dK][dK][dR]G)”: the “Number of Subjects with Tinnitus/Number of Subjects with Observation (%)” value (“Number of Subjects with Tinnitus/Number … (%)” for short) with ASNHL-related tinnitus (AM-111 0.4 mg/mL single i.t. injection, Day 0, after study drug, 53/56 subjects with ASNHL-related tinnitus) is 53/56 (94.6) %; in the assay with ASNHL-related tinnitus (AM-111 0.4 mg/mL single i.t. injection, Day 3, 51/56 subjects), 51/56 (91.1) %; in the assay with ASNHL-related tinnitus (AM-111 0.4 mg/mL single i.t. injection, Day 7, 42/55 subjects), 42/55 (76.4) %; in the assay with ASNHL-related tinnitus (AM-111 0.4 mg/mL single i.t. injection, Day 30, 26/55 subjects) it was 26/55 (47.3) %; in the assay on ASNHL-related tinnitus (AM-111 0.4 mg/mL single i.t. injection, Day 90, 19/50 subjects, placebo 56.0%), 38.0% and 19/50 (38.0) %; in the assay with ASNHL-related tinnitus (AM-111 2.0 mg/mL single i.t. injection, Day 0, after study drug, 58/59 subjects) it was 58/59 (98.3) %. Further, the “Number of Subjects with Tinnitus/Number … (%)” value is 59/59 (100) % with ASNHL-related tinnitus (AM-111 2.0 mg/mL single i.t. injection, Day 3, 59/59 subjects); 51/58 (87.9) % in the assay with ASNHL-related tinnitus (AM-111 2.0 mg/mL single i.t. injection, Day 7, 51/58 subjects); 35/56 (62.5) % in the assay on ASNHL-related tinnitus (AM-111 2.0 mg/mL single i.t. injection, Day 30, 35/56 subjects); 51.9% and 28/54 (51.9) % in the assay on ASNHL-related tinnitus (AM-111 2.0 mg/mL single i.t. injection, Day 90, 28/54 subjects, placebo 56.0%); 111/115 (96.5) % in the assay on ASNHL-related tinnitus (AM-111 Total (0.4 and 2.0 mg/mL groups), Day 0, after study drug, 111/115 subjects); 110/115 (95.7) % with ASNHL-related tinnitus (AM-111 Total (0.4 and 2.0 mg/mL groups), Day 3, 110/115 subjects). Moreover, the “Number of Subjects with Tinnitus/Number … (%)” value in the assay on ASNHL-related tinnitus (AM-111 Total (0.4 and 2.0 mg/mL groups), Day 7, 93/113 subjects) is 93/113 (82.3) %; in the assay with ASNHL-related tinnitus (AM-111 Total (0.4 and 2.0 mg/mL groups), Day 30, 61/111 subjects) it was 61/111 (55.0) %; in the assay on ASNHL-related tinnitus (AM-111 Total (0.4 and 2.0 mg/mL groups), Day 90, 47/104 subjects) it was 47/104 (45.2) %. The “Complete ASNHL-Related Tinnitus Remission in the Treated Ear, Frequency (%)” value was 35 (70.0%) with ASNHL-related tinnitus (AM-111 0.4 mg/mL, All Subjects N = 50 (35 subjects), placebo 54.9%, p=0.151); 21 (84.0%) in the assay with ASNHL-related tinnitus (AM-111 0.4 mg/mL, Mild to Moderate hearing loss subgroup N = 25 (21 subjects), placebo 78.6%, p=0.732); 31 (55.4%) with ASNHL-related tinnitus (AM-111 2.0 mg/mL, All Subjects N = 56 (31 subjects), placebo 54.9%, p=1.000); 17 (63.0%) with ASNHL-related tinnitus (AM-111 2.0 mg/mL, Mild to Moderate hearing loss subgroup N = 27 (17 subjects), placebo 78.6%, p=0.245). In addition, in the assay with ASNHL-related tinnitus (subgroup mild to moderate hearing loss, Fisher's Exact Test), the “Complete tinnitus remission, AM-111 treatment groups versus placebo” value is “no statistically significant differences”. For the same substance, the “Otoprotection in models of cochlear insult” value in assay [1] was “otoprotective”.
Take “Ac-YGRKKRRQRRR-gaba-ILKQSMTLNLADPVGSLKPHLRAKN-NH2 (YGRKKRRQRRRXILKQSMTLNLADPVGSLKPHLRAKN; N-acetyl; GABA spacer; C-terminal amide) [SEQ ID NO: 45, cell-permeable 37-mer peptide of human c-Jun delta domain and HIV-TAT protein transduction domain fused by a GABA spacer]”: in the assay on c-Jun/JNK complex, the “Disruption of c-Jun/JNK complex formation and subsequent phosphorylation and activation of c-Jun by JNK” value was “specifically disrupt c-Jun/JNK complex formation”.
